Reference: US8455523B2, “Compositions and methods for treating hyperlipidemias” (The Research Foundation of State University of New York, priority 2010, dated 2013)

Legend:
[1] = system: hepatic mRNA of ER stress, inflammation and lipid metabolism genes; experiment: Hepatic mRNA quantification (qPCR, XBP-1 splicing) in treated mice; type: in vivo; details: liver; for Bip, Ire1α, CHOP, PERK and ATF6 mRNA levels: BMS MTPi one week, lovastatin or pioglitazone with MTPi
Text: FIGS. 6a and 6b. Liver samples from FIG. 16 were used to isolate total mRNA and to quantify expression of different candidate genes. Statistical analyses were as described in FIGS. 16-17.
FIGS. 9a and 9b. C57B/6J mice were fed a western diet for 8 weeks and then treated with MTP inhibitor and other indicated compounds for 8 days as described in FIG. 16. Liver samples were used to isolate mRNA and to quantify mRNA levels with different candidate genes. Stars on MTPi group represent comparison with the control group.
FIG. 16. Age matched wildtype C57/BL6J animals chow fed animals were treated with DMSO (control) or MTP inhibitor (MTPi) for one week. Age matched wildtype C57/BL6J were fed WD for one month and were administered MTPi, Lovastatin, (Lova), Pioglitazone (Pio) or 4-phenylbutyric acid (PBA) every day for one week. All drugs were administered by oral gavage. Animals were sacrificed on day 7 and livers were harvested. mRNA was extracted and subjected to qPCR analysis. * represent comparison DMSO control; # represent comparisons to WD control; @ represent comparisons to WD MTP inhibitor treated animals.
mRNA quantifications and primers used: Total RNA from tissues and cells were isolated using TriZol™ (Invitrogen). The purity and integrity of RNA were assessed by the A260/A280 ratio and 1% agarose gel electrophoresis, respectively. Only the RNAs with ratios more than 1.7 were used for cDNA synthesis. The first strand cDNA was synthesized using Omniscript RT (Qiagen) kit. Briefly, 2 μg of total RNA, 1 μM random primers (Invitrogen), 0.5 mM dNTP solution, and 0.5 U/μl Omniscript Reverse Transcriptase were incubated at 37° C. for 1 h in 20 μl of RT buffer and the reaction was terminated by incubating at 95° C. for 5 minutes. Each reaction of quantitative RT-PCR was carried out in a volume of 20 μl consisting of 5 μl cDNA sample (1:100 dilution of the first strand cDNA sample) and 15 μl of PCR master mix solution containing 1×PCR reaction buffer, 6 mM MgCl2, 200 nM primer pair, 0.025 U/μl HotStar Gold™ DNA polymerase, 200 μM dNTP solution, and 0.3 μl SYBR Green I solution (gPCR™ Core Kit for SYBR Green I, Eurogentec). The PCR was carried out by incubating the reaction mixture first for 10 minute at 95° C. followed by 40 cycles of 15 sec incubations at 95° C. and 1 min at 60° C. in the ABI 7000 SDS PCR machine. The data were analyzed using ΔΔCT method according to manufacturer's instruction and presented as arbitrary units. The primers used in this study were designed with the PrimerExpress 3.0 software (Applied Biosystems, CA) and are presented as Table 1.

MTP = molecular target: T1, MTP (Mus musculus, UniProt O08601); experiment: Determination of MTP activity in tissues (liver homogenates of treated mice); type: in vivo; details: for MTP activity (liver): C57Bl/6J, MTPi 1 mg/kg/day oral one week, lovastatin 50 or pioglitazone 25 mg/kg/day added to MTPi; for MTP specific activity (liver): WD fed C57Bl/6J, drug alone, one week
T1 construct: small pieces (0.1 g) of liver and ˜1-cm segments of proximal small intestine were homogenized; from tissue; host or cells: mouse liver (C57BL/6J; Reversa mice in some experiments); supernatant of ultracentrifuged homogenate
T1 sequence (O08601 22-894): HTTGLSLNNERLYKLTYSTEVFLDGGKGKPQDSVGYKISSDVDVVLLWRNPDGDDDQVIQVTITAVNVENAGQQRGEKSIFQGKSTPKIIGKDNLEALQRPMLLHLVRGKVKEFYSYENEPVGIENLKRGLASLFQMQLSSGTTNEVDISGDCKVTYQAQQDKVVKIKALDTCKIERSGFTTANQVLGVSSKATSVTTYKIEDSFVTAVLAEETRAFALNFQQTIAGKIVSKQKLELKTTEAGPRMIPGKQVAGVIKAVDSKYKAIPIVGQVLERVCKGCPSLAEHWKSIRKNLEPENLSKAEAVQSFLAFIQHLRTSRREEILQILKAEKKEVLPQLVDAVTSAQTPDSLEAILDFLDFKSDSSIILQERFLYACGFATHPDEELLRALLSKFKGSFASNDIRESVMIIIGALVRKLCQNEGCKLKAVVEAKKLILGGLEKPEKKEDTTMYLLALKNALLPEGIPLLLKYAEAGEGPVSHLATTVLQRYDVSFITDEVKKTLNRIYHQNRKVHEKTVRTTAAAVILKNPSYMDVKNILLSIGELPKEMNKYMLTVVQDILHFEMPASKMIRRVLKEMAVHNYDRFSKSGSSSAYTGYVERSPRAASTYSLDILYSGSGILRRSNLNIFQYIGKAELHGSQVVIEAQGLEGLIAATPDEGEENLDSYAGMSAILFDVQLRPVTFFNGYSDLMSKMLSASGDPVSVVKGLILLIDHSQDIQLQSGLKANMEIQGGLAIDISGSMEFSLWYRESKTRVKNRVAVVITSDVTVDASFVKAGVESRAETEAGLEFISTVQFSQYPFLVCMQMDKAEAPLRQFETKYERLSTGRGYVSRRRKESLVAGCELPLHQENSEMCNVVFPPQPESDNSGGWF
T1 sequence (P09103 21-509 partner limits assumed): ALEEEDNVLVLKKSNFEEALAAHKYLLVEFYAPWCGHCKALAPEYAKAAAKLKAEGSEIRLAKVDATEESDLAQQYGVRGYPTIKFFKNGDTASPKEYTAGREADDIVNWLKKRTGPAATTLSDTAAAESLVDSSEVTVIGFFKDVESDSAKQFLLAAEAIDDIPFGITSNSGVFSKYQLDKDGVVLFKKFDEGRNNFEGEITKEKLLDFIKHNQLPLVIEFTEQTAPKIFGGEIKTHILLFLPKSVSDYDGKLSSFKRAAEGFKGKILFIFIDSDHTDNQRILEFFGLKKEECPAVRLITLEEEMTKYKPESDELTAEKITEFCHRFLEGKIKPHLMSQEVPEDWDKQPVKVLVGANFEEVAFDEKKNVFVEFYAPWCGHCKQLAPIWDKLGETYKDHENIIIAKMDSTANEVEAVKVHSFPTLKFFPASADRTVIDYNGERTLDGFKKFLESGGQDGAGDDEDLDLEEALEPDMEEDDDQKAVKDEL
Experimental: After extensive washes with ice-cold PBS, small pieces (0.1 g) of liver and ˜1-cm segments of proximal small intestine were homogenized with 1 ml of ice-cold 1 mM Tris-HCl, pH 7.6, 1 mM EGTA, and 1 mM MgCl2 buffer in a glass homogenizer. The homogenates were centrifuged (SW55 Ti rotor, 50,000 rpm, 10° C., 1 h), and supernatants were used for MTP assay as described before (41; 42) using a kit (Chylos, Inc.).

[2] = WD five weeks, treatment in last week, MTPi ± pioglitazone or lovastatin
[3] = WD 8 weeks, CP-346086 1 week ± lovastatin or WY14643

Row | Compound | Bip, Ire1α, CHOP, PERK and ATF6 mRNA levels [1] | MTP activity (liver) (MTP) | MTP specific activity (liver) (MTP) | hepatic MTP activity (MTP; [2]) | Ire1α mRNA and spliced form of XBP-1 ([1]; WD 8 weeks, CP-346086 ± lovastatin or WY14643, 8 days) | hepatic MTP activity (MTP; [3])
1 | CCc1ccc(CCOc2ccc(CC3SC(=O)NC3=O)cc2)nc1 (racemic) [pioglitazone, (RS)-5-(4-[2-(5-ethylpyridin-2-yl)ethoxy]benzyl)thiazolidine-2,4-dione] | significantly lower | not further affected | no effect | unaffected | – | –
2 | Cc1cccc(Nc2cc(Cl)nc(SCC(=O)O)n2)c1C [WY14643] | – | – | – | – | no effect | no further effect
3 | CC[C@H](C)C(=O)O[C@H]1C[C@@H](C)C=C2C=C[C@H](C)[C@H](CC[C@@H]3C[C@@H](O)CC(=O)O3)[C@H]21 [lovastatin] | significantly lower | not further affected | no effect | unaffected | – | no further effect
